# Experimental data taken from ChEMBL document CHEMBL2146418, “Synthesis and comparison of antiplasmodial activity of (+), (-) and racemic 7-chloro-4-(N-lupinyl)aminoquinoline” (Bioorg Med Chem, 2012).
# How the values were obtained:
# [1] = Therapeutic index, ratio of IC50 for human HMEC1 cells to IC50 for Plasmodium falciparum; assay type: cell-based; details: HMEC1 cells versus Plasmodium falciparum, read-out: Ratio IC50
# [2] = Cytotoxicity against human HDF cells after 72 hrs by MTT assay; assay type: cell-based
# [3] = Cytotoxicity against human HMEC1 cells after 72 hrs by MTT assay; assay type: cell-based; details: HMEC-1, 72 h
# Plasmodium falciparum [4] = test: Antiplasmodial activity against chloroquine-resistant Plasmodium falciparum isolate Kenya after 72 hrs by lactate dehydrogenase assay; assay type: functional, organism-based
# Plasmodium falciparum [5] = test: Antiplasmodial activity against chloroquine-resistant Plasmodium falciparum W2 infected in human RBC assessed as inhibition of parasite growth after 72 hrs by lactate dehydrogenase assay; assay type: functional, organism-based; details: W2, 72 h
# Plasmodium falciparum [6] = test: Antiplasmodial activity against chloroquine-sensitive Plasmodium falciparum 3D7 infected in human RBC assessed as inhibition of parasite growth after 72 hrs by lactate dehydrogenase assay; assay type: functional, organism-based; details: 3D7, 72 h
# Plasmodium falciparum [7] = test: Antiplasmodial activity against chloroquine-sensitive Plasmodium falciparum D10 infected in human RBC assessed as inhibition of parasite growth after 72 hrs by lactate dehydrogenase assay; assay type: functional, organism-based; details: D10, 72 h
SMILES,selectivity ratio [1],IC50 [2] [nM],IC50 [3] [nM],IC50 (Plasmodium falciparum [4]) [nM],IC50 (Plasmodium falciparum [5]) [nM],IC50 (Plasmodium falciparum [6]) [nM],IC50 (Plasmodium falciparum [7]) [nM]
Clc1ccc2c(NC[C@@H]3CCCN4CCCC[C@H]34)ccnc2c1,> 1000,22600,> 49000,29.2,53.7,28.1,24
Clc1ccc2c(NC[C@H]3CCCN4CCCC[C@@H]34)ccnc2c1,> 1000,26900,> 60000,18.9,35.8,21.9,17.5
Clc1ccc2c(NCC3CCCN4CCCCC34)ccnc2c1 (racemic),> 1000,24600,> 60000,19.4,35.4,18.6,16.1
CCN(CC)CCCC(C)Nc1ccnc2cc(Cl)ccc12 (stereo not drawn) [CHLOROQUINE],,> 38000,> 38000,,,,
